Results published in patent US8785478B2, “Viral polymerase inhibitors” (Biota Scientific Management Pty Ltd, priority 2012, dated 2014).
≈ marks a conversion by molar mass, not a printed value. Read-outs that look alike come from different tables or passages of the source.

Columns and labels:
1b (BK) NS5BΔ21 = molecular target: T1, 1b (BK) NS5BΔ21 (Hepatitis C virus genotype 1b, UniProt P26663); assay: HCV Polymerase Inhibition Assay; assay type: biochemical
T1 construct: 100 nM, 1b (BK) NS5BΔ21
Method: HCV polymerase reactions were carried out using a modified method of Howe et al., Antimicrobial Agents and Chemotherapy 2004 48(12): 4813-4821. Reactions contained a final concentration of, 0.5% DMSO, 100 nM, 1b (BK) NS5BΔ21, 20 mM Tris-HCl pH 7.5, 5 mM MgCl2, 5 mM MnCl2, 3 mM DTT, 0.05% BSA, 0.2 U/μL RNasin, 10 μg/mL Poly(rC) template, GTP (at Km) and 0.05 μCi/μL ^33P-GTP in a total reaction volume of 50 μL. Compounds were tested in a three fold dilution series, for example starting from 50 μM. Reactions were initiated with the addition of GTP and terminated after 90 min with 50 μL ice cold 0.2 M EDTA. Terminated reactions were transferred to DEAE 96-well filter plates, unincorporated nucleotides washed from the filters and 50 μL scintillation fluid added prior to reading on a scintillation counter. The compound concentration that reduced ^33P-GTP incorporation by 50% (IC50) was calculated using non-linear regression.

[1] = Aqueous solubility (laser nephelometry); assay type: physicochemical; settings: for solubility at 30 min: aqueous assay buffer with 1% DMSO, kinetic from dmso stock, 30 minute incubation at 25° C.
Method: Test compounds prepared in DMSO were screened in duplicate over a range of concentrations (1.6-100 ug/mL) in different aqueous media (for example a pH6.5 buffers which are relevant to the stomach and upper regions of the small intestine and therefore important when predicting the amount of drug likely to be in solution following oral administration). Test compounds were serially diluted in 100% DMSO ranging from 10-0.16 mg/mL. These titrated DMSO stocks were then further diluted 1:100 with assay buffer and added to test plates (UV Star Griener 384 well plates), maintaining the DMSO concentration at 1%.

[2] = tested on: genotype 1b (Con 1) subgenomic replicon cell line; assay: HCV replicon assay, genotype 1b (Renilla luciferase); assay type: cell-based; settings: Hepatitis C virus, genotype 1b replicon
Method: (§1) A genotype 1b (Con 1) subgenomic replicon cell line based on Blight et al., Science 2000 290: 1972-1974, modified to express a Renilla luciferase reporter gene was used to assess antiviral activity of test compounds. Cell cultures were maintained in a sub-confluent state in DMEM with glutamine, 10% heat-inactivated foetal bovine serum (FBS) and G418 (Geneticin®).
(§2) For assay, cells were seeded at a density of 7000 cells/well into 96 well tissue culture trays in culture media lacking G418. Compounds were tested in a three fold dilution series, for example starting from 50 uM. After 72 hours incubation at 37° C. and 5% CO2, Renilla luciferase activity was quantified via the Promega Renilla Luciferase or Renilla-Glo™ Luciferase Assay Systems (Promega corporation. The same method was employed for replicon assays using subgenomic genotype 1a (H77) and 2a (JFH-1) replicon cell lines with a seeding cell density of 5000 cells/well for the 2a cell lines.
(§3) The compound concentration that reduced luciferase activity by 50% (EC50) was calculated using non-linear regression.

[3] = Cytotoxicity analysis (MTT); assay type: cell-based; settings: genotype 1b replicon cells, three days, read-out: G1b (CC50 μM)
Method: Cytotoxicity of compounds against genotype 1b replicon cells was determined via metabolism of the vital dye 3-(4,5-dimethylthiaxol-2-yl)-2,5-diphenyltetrazolium bromide (MTT, for example see Watanabe et al., Journal of Virological Methods 1994 48:257-265). Plates were prepared as described for the HCV Replicon assay and cytotoxicity of the test article was evaluated after three days. MTT was added to assay plates followed by three hour incubation at 37° C. Wells were aspirated to dryness and the formazan dye dissolved by the addition of isopropanol. Absorbance values were read at 540/690 nm). The compound concentration that reduced cell viability by 50% (CC50) was calculated using non-linear regression.

[4] = tested on: subgenomic genotype 1a (H77) replicon cell line; assay: HCV replicon assay, genotype 1a (Renilla luciferase); assay type: cell-based; settings: Hepatitis C virus; genotype 1a replicon; read-out: G1a (EC50 μM)
Method: as §1, §2, §3

[5] = tested on: subgenomic genotype 2a (JFH-1) replicon cell line; assay: HCV replicon assay, genotype 2a (Renilla luciferase); assay type: cell-based; settings: Hepatitis C virus; genotype 2a replicon; read-out: G2a (EC50 μM)
Method: as §1, §2, §3

[6] = 1b polymerase IC50 (μM) range, genotype 1b NS5B, 33P-GTP incorporation
[7] = aqueous buffer, pH 6.5, 1% DMSO, read-out: Solubility pH 6.5
[8] = simulated gastric fluid, pH 2, 1% DMSO, read-out: Solubility pH 2
[9] = 72 hours, read-out: genotype 1b EC50 (μM) range
[10] = NS5B G1b (IC50 μM), genotype 1b polymerase

T1 sequence (P26663 2420-2989, stated change not applied): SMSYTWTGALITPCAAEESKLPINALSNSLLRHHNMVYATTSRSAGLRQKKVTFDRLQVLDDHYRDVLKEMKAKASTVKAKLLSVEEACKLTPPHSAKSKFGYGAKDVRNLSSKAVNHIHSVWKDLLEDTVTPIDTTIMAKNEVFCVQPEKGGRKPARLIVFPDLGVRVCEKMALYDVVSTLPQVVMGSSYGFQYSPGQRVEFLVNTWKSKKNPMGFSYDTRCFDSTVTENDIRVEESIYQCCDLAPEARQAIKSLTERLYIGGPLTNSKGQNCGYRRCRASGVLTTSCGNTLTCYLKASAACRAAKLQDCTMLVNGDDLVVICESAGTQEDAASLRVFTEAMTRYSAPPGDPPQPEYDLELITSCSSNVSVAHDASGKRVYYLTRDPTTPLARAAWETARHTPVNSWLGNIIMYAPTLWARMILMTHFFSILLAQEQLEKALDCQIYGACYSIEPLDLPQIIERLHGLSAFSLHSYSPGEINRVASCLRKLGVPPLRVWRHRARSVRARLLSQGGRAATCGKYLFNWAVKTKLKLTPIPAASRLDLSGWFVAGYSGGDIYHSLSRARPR

CNC(=O)c1c2cc(C3CC3)c(N(CCO)S(C)(=O)=O)cc2nn1-c1ccc(C)cn1 [Compound 2, 5-cyclopropyl-6-[(2-hydroxyethyl)(methylsulfonyl)amino]-N-methyl-2-(5-methylpyridin-2-yl)-2H-indazole-3-carboxamide]
IC50 (1b (BK) NS5BΔ21; [6]): 1 to 10 µM | solubility at 30 min [1, 7]: > 100 µg/mL | solubility at 30 min [1, 8]: 50 to 100 µg/mL (≈ 113 to 225 µM) | EC50 [2, 9]: 0.1 to 0.49 µM

CNC(=O)c1c2cc(C3CC3)c(N(CC(F)F)S(C)(=O)=O)cc2nn1-c1ccc(C)cn1 [Compound 3, 5-cyclopropyl-6-[(2,2-difluoroethyl)(methylsulfonyl)amino]-N-methyl-2-(5-methylpyridin-2-yl)-2H-indazole-3-carboxamide]
IC50 (1b (BK) NS5BΔ21; [6]): 0.5 to 0.99 µM | solubility at 30 min [1, 7]: 50 to 100 µg/mL (≈ 108 to 216 µM) | solubility at 30 min [1, 8]: 50 to 100 µg/mL (≈ 108 to 216 µM) | EC50 [2, 9]: < 0.1 µM

CNC(=O)c1c2cc(C3CC3)c(N(CCC3COC3)S(C)(=O)=O)cc2nn1-c1ccc(C)cn1 [Compound 4, 5-cyclopropyl-N-methyl-2-(5-methylpyridin-2-yl)-6-{(methylsulfonyl)[2-(oxetan-3-yl)ethyl]amino}-2H-indazole-3-carboxamide]
CC50 at 3 days [3]: > 50 µM | IC50 (1b (BK) NS5BΔ21; [6]): 0.1 to 0.49 µM | IC50 (1b (BK) NS5BΔ21; [10]): 0.388 µM | EC50 [4]: 0.035 µM | EC50 [5]: 0.293 µM | EC50 [2, 9]: < 0.1 µM | EC50 ([2]; read-out: G1b (EC50 μM)): 0.054 µM

CCN(c1cc2nn(-c3ccc(C)cn3)c(C(=O)NC)c2cc1C1CC1)S(C)(=O)=O [Compound 5, 5-cyclopropyl-6-[ethyl(methylsulfonyl)amino]-N-methyl-2-(5-methylpyridin-2-yl)-2H-indazole-3-carboxamide]
CC50 at 3 days [3]: > 50 µM | IC50 (1b (BK) NS5BΔ21; [6]): 0.1 to 0.49 µM | IC50 (1b (BK) NS5BΔ21; [10]): 0.283 µM | times more potent than Compound A (1b (BK) NS5BΔ21; in each of the HCV assays tested (polymerase, replicon)): at least 10 times | EC50 [4]: 0.068 µM | solubility at 30 min [1, 7]: > 100 µg/mL | solubility at 30 min [1, 8]: > 100 µg/mL | solubility in words ([1]; at both pH2 and pH 6.5): good solubility | EC50 [5]: 0.147 µM | EC50 [2, 9]: < 0.1 µM | EC50 ([2]; read-out: G1b (EC50 μM)): 0.03 µM

CNC(=O)c1c2cc(C3CC3)c(N(C)S(C)(=O)=O)cc2nn1-c1ccc(C)cn1 [Compound 6, 5-cyclopropyl-N-methyl-6-[methyl(methylsulfonyl)amino]-2-(5-methylpyridin-2-yl)-2H-indazole-3-carboxamide]
CC50 at 3 days [3]: > 50 µM | IC50 (1b (BK) NS5BΔ21; [6]): 0.1 to 0.49 µM | IC50 (1b (BK) NS5BΔ21; [10]): 0.31 µM | EC50 [4]: 0.044 µM | EC50 [5]: 0.024 µM | EC50 [2, 9]: < 0.1 µM | EC50 ([2]; read-out: G1b (EC50 μM)): 0.004 µM

CNC(=O)c1c2cc(C3CC3)c(N(CCF)S(C)(=O)=O)cc2nn1-c1ccc(C)cn1 [Compound 7, 5-cyclopropyl-6-[(2-fluoroethyl)(methylsulfonyl)amino]-N-methyl-2-(5-methylpyridin-2-yl)-2H-indazole-3-carboxamide]
IC50 (1b (BK) NS5BΔ21; [6]): 0.5 to 0.99 µM | EC50 [2, 9]: < 0.1 µM

CCN(c1cc2nn(-c3ccc(Cl)cn3)c(C(=O)NC)c2cc1C1CC1)S(C)(=O)=O [Compound 8, 2-(5-chloropyridin-2-yl)-5-cyclopropyl-6-[ethyl(methylsulfonyl)amino]-N-methyl-2H-indazole-3-carboxamide]
CC50 at 3 days [3]: > 50 µM | IC50 (1b (BK) NS5BΔ21; [6]): < 0.1 µM | IC50 (1b (BK) NS5BΔ21; [10]): 0.091 µM | EC50 [4]: 0.016 µM | EC50 [5]: 0.04 µM | EC50 [2, 9]: < 0.1 µM | EC50 ([2]; read-out: G1b (EC50 μM)): 0.009 µM

CNC(=O)c1c2cc(C3CC3)c(N(C)S(C)(=O)=O)cc2nn1-c1ccc(Cl)cn1 [Compound 9, 2-(5-chloropyridin-2-yl)-5-cyclopropyl-N-methyl-6-[methyl(methylsulfonyl)amino]-2H-indazole-3-carboxamide]
CC50 at 3 days [3]: > 50 µM | IC50 (1b (BK) NS5BΔ21; [6]): < 0.1 µM | IC50 (1b (BK) NS5BΔ21; [10]): 0.054 µM | EC50 [4]: 0.031 µM | EC50 [5]: 0.055 µM | EC50 [2, 9]: < 0.1 µM | EC50 ([2]; read-out: G1b (EC50 μM)): 0.008 µM

CNC(=O)c1c2cc(C3CC3)c(N(CCC3COC3C)S(C)(=O)=O)cc2nn1-c1ccc(C)cn1 (centres unmarked) [Compound 10, 5-cyclopropyl-N-methyl-6-{[2-(2-methyloxetan-3-yl)ethyl](methylsulfonyl)amino}-2-(5-methylpyridin-2-yl)-2H-indazole-3-carboxamide]
IC50 (1b (BK) NS5BΔ21; [6]): 0.5 to 0.99 µM | EC50 [2, 9]: < 0.1 µM

CNC(=O)c1c2cc(C3CC3)c(N(CCC3(C)COC3)S(C)(=O)=O)cc2nn1-c1ccc(C)cn1 [Compound 11, 5-cyclopropyl-N-methyl-6-{[2-(3-methyloxetan-3-yl)ethyl](methylsulfonyl)amino}-2-(5-methylpyridin-2-yl)-2H-indazole-3-carboxamide]
CC50 at 3 days [3]: > 50 µM | IC50 (1b (BK) NS5BΔ21; [6]): 0.1 to 0.49 µM | IC50 (1b (BK) NS5BΔ21; [10]): 0.4 µM | EC50 [4]: 0.013 µM | solubility at 30 min [1, 7]: 50 to 100 µg/mL (≈ 100 to 201 µM) | solubility at 30 min [1, 8]: 50 to 100 µg/mL (≈ 100 to 201 µM) | EC50 [5]: 0.183 µM | EC50 [2, 9]: < 0.1 µM | EC50 ([2]; read-out: G1b (EC50 μM)): 0.028 µM

CNC(=O)c1c2cc(C3CC3)c(N(C)S(C)(=O)=O)cc2nn1-c1ncc(C)s1 [Compound 13, 5-cyclopropyl-N-methyl-6-[methyl(methylsulfonyl)amino]-2-(5-methylthiazol-2-yl)indazole-3-carboxamide]
EC50 [2, 9]: 0.1 to 0.49 µM

CNC(=O)c1c2cc(C3CC3)c(N(C)S(C)(=O)=O)cc2nn1-c1ccccn1 [Compound 14, 5-cyclopropyl-N-methyl-6-[methyl(methylsulfonyl)amino]-2-(2-pyridyl)indazole-3-carboxamide]
EC50 [2, 9]: 0.1 to 0.49 µM

CNC(=O)c1c2cc(C3CC3)c(N(C)S(C)(=O)=O)cc2nn1-c1cc(C)c(Cl)cn1 [Compound 15, 2-(5-chloro-4-methyl-2-pyridyl)-5-cyclopropyl-N-methyl-6-[methyl(methylsulfonyl)amino]indazole-3-carboxamide]
EC50 [2, 9]: 0.1 to 0.49 µM

CNC(=O)c1c2cc(C3CC3)c(N(CCC3CN(C(=O)OC(C)(C)C)C3)S(C)(=O)=O)cc2nn1-c1ccc(C)cn1 [Compound 16, tert-butyl 3-[2-[[5-cyclopropyl-3-(methylcarbamoyl)-2-(5-methyl-2-pyridyl)indazol-6-yl]-methylsulfonyl-amino]ethyl]azetidine-1-carboxylate]
IC50 (1b (BK) NS5BΔ21; [6]): 1 to 10 µM | EC50 [2, 9]: < 0.1 µM

CNC(=O)c1c2cc(C3CC3)c(N(CCC3CN(C(C)=O)C3)S(C)(=O)=O)cc2nn1-c1ccc(C)cn1 [Compound 17, 6-[2-(1-acetylazetidin-3-yl)ethyl-methylsulfonyl-amino]-5-cyclopropyl-N-methyl-2-(5-methyl-2-pyridyl)indazole-3-carboxamide]
IC50 (1b (BK) NS5BΔ21; [6]): 0.5 to 0.99 µM | solubility at 30 min [1, 7]: > 100 µg/mL | solubility at 30 min [1, 8]: 50 to 100 µg/mL (≈ 95.3 to 191 µM) | EC50 [2, 9]: 0.1 to 0.49 µM

CNC(=O)c1c2cc(C3CC3)c(N(CCC3(OC)COC3)S(C)(=O)=O)cc2nn1-c1ccc(C)cn1 [Compound 18, 5-cyclopropyl-6-[2-(3-methoxyoxetan-3-yl)ethyl-methylsulfonyl-amino]-N-methyl-2-(5-methyl-2-pyridyl)indazole-3-carboxamide]
CC50 at 3 days [3]: > 50 µM | IC50 (1b (BK) NS5BΔ21; [6]): 0.1 to 0.49 µM | IC50 (1b (BK) NS5BΔ21; [10]): 0.188 µM | EC50 [4]: 0.031 µM | EC50 [5]: 0.305 µM | EC50 [2, 9]: < 0.1 µM | EC50 ([2]; read-out: G1b (EC50 μM)): 0.056 µM

CNC(=O)c1c2cc(C3CC3)c(N(CCC3COC3)S(C)(=O)=O)cc2nn1-c1ccc(Cl)cn1 [Compound 19, 2-(5-chloro-2-pyridyl)-5-cyclopropyl-N-methyl-6-[methylsulfonyl-[2-(oxetan-3-yl)ethyl]amino]indazole-3-carboxamide]
CC50 at 3 days [3]: > 50 µM | IC50 (1b (BK) NS5BΔ21; [6]): 0.1 to 0.49 µM | IC50 (1b (BK) NS5BΔ21; [10]): 0.131 µM | EC50 [4]: 0.011 µM | EC50 [5]: 0.019 µM | EC50 [2, 9]: < 0.1 µM | EC50 ([2]; read-out: G1b (EC50 μM)): 0.021 µM
